# Biological target: APJ receptor (Homo sapiens (Human), UniProt P35414)
# Test: [35S]GTPγS binding assay on membranes from CHO cells stably expressing human APJ receptor
# Type: biochemical
# Details: membranes of CHO cells stably expressing human APJ receptor, means of several independent experiments, read-out: Activity hAPJ SPA EC50 IP
# Procedure, shortened: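 EC50 values were obtained by non-linear regression of [35S]GTPγS (0.2 nM) binding after 90 min at RT, with nonspecific binding defined by 100 μM GTPγS. Reactions used human APJ–expressing CHO cell membranes on WGA PS beads in HEPES pH 7.5 buffer with 5 mM MgCl2, 200 mM NaCl, 3 μM GDP and 0.1% BSA.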
# Sequence of APJ receptor (P35414 whole entry): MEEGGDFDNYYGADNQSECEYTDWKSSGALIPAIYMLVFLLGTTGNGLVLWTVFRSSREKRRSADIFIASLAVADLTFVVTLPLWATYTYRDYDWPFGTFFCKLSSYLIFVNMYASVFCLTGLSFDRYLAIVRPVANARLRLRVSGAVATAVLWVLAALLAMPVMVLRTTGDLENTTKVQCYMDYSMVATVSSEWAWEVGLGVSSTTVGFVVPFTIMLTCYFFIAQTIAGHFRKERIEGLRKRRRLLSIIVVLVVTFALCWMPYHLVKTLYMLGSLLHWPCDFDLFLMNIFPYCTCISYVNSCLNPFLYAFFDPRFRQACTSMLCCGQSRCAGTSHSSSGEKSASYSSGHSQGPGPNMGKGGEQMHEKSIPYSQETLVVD
row,Molecule,EC50 [nM]
1,"COc1cccc(OC)c1-n1c(NS(=O)(=O)C[C@H](O)c2ccc(Cl)cc2S(C)(=O)=O)nnc1-c1ccc(C)o1 (single isomer, unassigned) [Example 144.0, (2R)-2-(4-Chloro-2-(methylsulfonyl)phenyl)-N-(4-(2,6-dimethoxyphenyl)-5-(5-methyl-2-furanyl)-4H-1,2,4-triazol-3-yl)-2-hydroxyethanesulfonamide or (2S)-2-(4-chloro-2-(methylsulfonyl)phenyl)-N-(4-(2,6-dimethoxyphenyl)-5-(5-methyl-2-furanyl)-4H-1,2,4-triazol-3-yl)-2-hydroxyethanesulfonamide]",0.073
2,"COc1cccc(OC)c1-n1c(NS(=O)(=O)[C@@H](C)[C@@H](O)c2cc3ccccn3n2)nnc1-c1ccc(C)o1 (single isomer, unassigned) [Example 304.0, (1S,2S)—N-(4-(2,6-Dimethoxyphenyl)-5-(5-methyl-2-furanyl)-4H-1,2,4-triazol-3-yl)-1-hydroxy-1-pyrazolo[1,5-a]pyridin-2-yl-2-propanesulfonamide or (1R,2R)—N-(4-(2,6-dimethoxyphenyl)-5-(5-methyl-2-furanyl)-4H-1,2,4-triazol-3-yl)-1-hydroxy-1-pyrazolo[1,5-a]pyridin-2-yl-2-propanesulfonamide]",16
3,"CC[C@H](Cc1ncc(F)cn1)S(=O)(=O)Nc1nnc(-c2ccco2)n1-c1c(OC)cccc1OC (single isomer, unassigned) [Example 136.0, (R)—N-(4-(2,6-Dimethoxyphenyl)-5-(furan-2-yl)-4H-1,2,4-triazol-3-yl)-1-(5-fluoropyrimidin-2-yl)butane-2-sulfonamide or (S)—N-(4-(2,6-dimethoxyphenyl)-5-(furan-2-yl)-4H-1,2,4-triazol-3-yl)-1-(5-fluoropyrimidin-2-yl)butane-2-sulfonamide]",19
4,"COCCn1c(NS(=O)(=O)[C@@H](C)[C@H](OC)c2ncc(Cl)cn2)nnc1-c1ccc(C)o1 [Example 386.0, (1R,2S)-1-(5-chloropyrimidin-2-yl)-1-methoxy-N-(4-(2-methoxyethyl)-5-(5-methylfuran-2-yl)-4H-1,2,4-triazol-3-yl)propane-2-sulfonamide]",37
5,"COc1cccc(OC)c1-n1c(NS(=O)(=O)[C@@H](C)[C@H](O)c2ccc(F)c(C#N)c2)nnc1-c1ccc(C)o1 (single isomer, unassigned) [Example 81.0]",1.1
6,"COc1cccc(OC)c1-n1c(NS(=O)(=O)[C@H](C)Cc2ncc(Cl)cn2)nnc1-c1ccco1 (single isomer, unassigned) [Example 37.0, (2R)-1-(5-chloro-2-pyrimidinyl)-N-(4-(2,6-dimethoxyphenyl)-5-(2-furanyl)-4H-1,2,4-triazol-3-yl)-2-propanesulfonamide or (2S)-1-(5-chloro-2-pyrimidinyl)-N-(4-(2,6-dimethoxyphenyl)-5-(2-furanyl)-4H-1,2,4-triazol-3-yl)-2-propanesulfonamide]",3.6
7,"COc1cccc(OC)c1-n1c(NS(=O)(=O)[C@H]2C[C@@H](O)CN(c3ncc(F)cc3C#N)C2)nnc1-c1ccc(C)o1 (racemic) [Example 331.0, (3S,5R)-1-(3-Cyano-5-fluoropyridin-2-yl)-N-(4-(2,6-dimethoxyphenyl)-5-(5-methylfuran-2-yl)-4H-1,2,4-triazol-3-yl)-5-hydroxypiperidine-3-sulfonamide and (3R,5S)-1-(3-cyano-5-fluoropyridin-2-yl)-N-(4-(2,6-dimethoxyphenyl)-5-(5-methylfuran-2-yl)-4H-1,2,4-triazol-3-yl)-5-hydroxypiperidine-3-sulfonamide]",0.45
8,"COc1cccc(OC)c1-n1c(NS(=O)(=O)[C@H](C)Cc2ccc(C#N)cn2)nnc1-c1ccc(C)o1 (single isomer, unassigned) [Example 12.0, (2R)-1-(5-cyano-2-pyridinyl)-N-(4-(2,6-dimethoxyphenyl)-5-(5-methyl-2-furanyl)-4H-1,2,4-triazol-3-yl)-2-propanesulfonamide or (2S)-1-(5-cyano-2-pyridinyl)-N-(4-(2,6-dimethoxyphenyl)-5-(5-methyl-2-furanyl)-4H-1,2,4-triazol-3-yl)-2-propanesulfonamide]",0.15
9,"CCOC(=O)[C@@H]1C[C@@H](S(=O)(=O)Nc2nnc(-c3ccco3)n2-c2c(OC)cccc2OC)CN(c2ncc(F)cn2)C1 [Example 158.0, Ethyl (3R,5R)-5-((4-(2,6-dimethoxyphenyl)-5-(2-furanyl)-4H-1,2,4-triazol-3-yl)sulfamoyl)-1-(5-fluoro-2-pyrimidinyl)-3-piperidinecarboxylate or ethyl (3S,5S)-5-((4-(2,6-dimethoxyphenyl)-5-(2-furanyl)-4H-1,2,4-triazol-3-yl)sulfamoyl)-1-(5-fluoro-2-pyrimidinyl)-3-piperidinecarboxylate]",0.4
10,"CCc1ccc(-c2nnc(NS(=O)(=O)CCc3ncc(F)cn3)n2-c2c(OC)cccc2OC)o1 [Example 98.0, N-(4-(2,6-dimethoxyphenyl)-5-(5-ethyl-2-furanyl)-4H-1,2,4-triazol-3-yl)-2-(5-fluoro-2-pyrimidinyl)ethanesulfonamide]",0.45
11,"COc1cccc(OC)c1-n1c(NS(=O)(=O)[C@@H](C)Cc2ncc(C)cn2)nnc1-c1ccc(C)o1 (single isomer, unassigned) [Example 16.0, (2S)—N-(4-(2,6-dimethoxyphenyl)-5-(5-methyl-2-furanyl)-4H-1,2,4-triazol-3-yl)-1-(5-methyl-2-pyrimidinyl)-2-propanesulfonamide or (2R)—N-(4-(2,6-dimethoxyphenyl)-5-(5-methyl-2-furanyl)-4H-1,2,4-triazol-3-yl)-1-(5-methyl-2-pyrimidinyl)-2-propanesulfonamide]",0.22
12,"COc1ncnc(OC)c1-n1c(NS(=O)(=O)[C@@H](C)[C@H](C)c2ncc(Cl)cn2)nnc1-c1ccc(C)o1 [Example 383.0, (2S,3R)-3-(5-Chloropyrimidin-2-yl)-N-(4-(4,6-dimethoxypyrimidin-5-yl)-5-(5-methylfuran-2-yl)-4H-1,2,4-triazol-3-yl)butane-2-sulfonamide]",0.06
13,"COc1cccc(OC)c1-n1c(NS(=O)(=O)C[C@@H](C)c2ncc(F)cn2)nnc1-c1ccc(C)o1 (racemic) [Example 127.0, (S)—N-(4-(2,6-Dimethoxyphenyl)-5-(5-methylfuran-2-yl)-4H-1,2,4-triazol-3-yl)-2-(5-fluoropyrimidin-2-yl)propane-1-sulfonamide and (R)—N-(4-(2,6-dimethoxyphenyl)-5-(5-methylfuran-2-yl)-4H-1,2,4-triazol-3-yl)-2-(5-fluoropyrimidin-2-yl)propane-1-sulfonamide]",0.65

# More lines, now with the values ahead:
row,EC50 [nM],Molecule
1,0.13,"COc1cnc([C@@H](O)[C@H](C)S(=O)(=O)Nc2nnc(-c3ccc(C)o3)n2-c2c(OC)cccc2OC)cn1 (single isomer, unassigned) [Example 146.0, (1R, 2S)—N-(4-(2,6-Dimethoxyphenyl)-5-(5-methyl-2-furanyl)-4H-1,2,4-triazol-3-yl)-1-hydroxy-1-(5-methoxy-2-pyrazinyl)-2-propanesulfonamide or (1S, 2R)—N-(4-(2,6-dimethoxyphenyl)-5-(5-methyl-2-furanyl)-4H-1,2,4-triazol-3-yl)-1-hydroxy-1-(5-methoxy-2-pyrazinyl)-2-propanesulfonamide]"
2,0.45,COc1cccc(OC)c1-n1c(NS(=O)(=O)[C@H]2C[C@@H](O)CN(c3ncc(F)cn3)C2)nnc1-c1ccc(C)o1 (racemic) [Example 332.0]
3,0.47,"COc1cccc(OC)c1-n1c(NS(=O)(=O)[C@H](C)[C@H](OC)c2cn3ccccc3n2)nnc1-c1ccc(C)o1 (single isomer, unassigned) [Example 268.0, (1S,2S)—N-(4-(2,6-Dimethoxyphenyl)-5-(5-methyl-2-furanyl)-4H-1,2,4-triazol-3-yl)-1-imidazo[1,2-a]pyridin-2-yl-1-methoxy-2-propanesulfonamide or (1R,2R)—N-(4-(2,6-dimethoxyphenyl)-5-(5-methyl-2-furanyl)-4H-1,2,4-triazol-3-yl)-1-imidazo[1,2-a]pyridin-2-yl-1-methoxy-2-propanesulfonamide]"
4,1.9,"COc1cccc(OC)c1-n1c(NS(=O)(=O)CCN2C(=O)[C@H](C)C[C@H]2C)nnc1-c1ccco1 (single isomer, unassigned) [Example 175.0]"
5,18,"COc1cccc(OC)c1-n1c(NS(=O)(=O)[C@H](C)[C@H](O)c2cccc3nccn23)nnc1-c1ccc(C)o1 (racemic) [Example 306.0, (1R,2R)—N-(4-(2,6-Dimethoxyphenyl)-5-(5-methyl-2-furanyl)-4H-1,2,4-triazol-3-yl)-1-hydroxy-1-imidazo[1,2-a]pyridin-5-yl-2-propanesulfonamide and (1S,2S)—N-(4-(2,6-dimethoxyphenyl)-5-(5-methyl-2-furanyl)-4H-1,2,4-triazol-3-yl)-1-hydroxy-1-imidazo[1,2-a]pyridin-5-yl-2-propanesulfonamide]"
6,3.3,"(1R,2R)-N-(4-(2,6-dimethoxyphenyl)-5-(5-methyl-2-furanyl)-4H-1,2,4-triazol-3-yl)-1-methoxy-1-(5-methyl-2-pyrimidinyl)-2-propanesulfonamide or (1S,2S)-N-(4-(2,6-dimethoxyphenyl)-5-(5-methyl-2-furanyl)-4H-1,2,4-triazol-3-yl)-1-methoxy-1-(5-methyl-2-pyrimidinyl)-2-propanesulfonamide [Example 250.0]"

# From patent publication US10736883B2, “Triazole furan compounds as agonists of the APJ receptor” (AMGEN INC., priority 2016, dated 2020)
